Measurements published in ChEMBL document CHEMBL1131808, “Potent immunosuppressive C32-O-arylethyl ether derivatives of ascomycin with reduced toxicity” (Bioorg Med Chem Lett, 1999).
Calls of active or inactive are those of the source. No cut-off for these calls is given here.

Legend:
Mus musculus [1] = species: Mus musculus; test: The compound was tested for its inhibitory activity against T-cell proliferation using murine splenic T-cells; format: functional
Rattus norvegicus [2] = test: Cytotoxicity was determined by hypothermia induction after intravenous administration in rat; format: functional
Mus musculus [3] = test: In vivo immunosuppression in murine models by splenic T-cell proliferation assay after intravenous administration; format: functional
Rattus norvegicus [4] = test: The compound was tested for % reduction of nephrotoxicity in rat after intravenous administration at dose 5 mg/kg; format: functional
Mus musculus [5] = test: In vivo immunosuppression in murine models by splenic T-cell proliferation assay after peroral administration; format: functional; details: po
[6] = Ratio of hypothermia (ED50) by Murine (ED50) in vivo; format: functional
[7] = molecular target: Peptidyl-prolyl cis-trans isomerase FKBP1A (Homo sapiens, UniProt P62942); test: Effective concentration against FK506 binding protein 12 using [3H]-dihydro FK-506
Rattus norvegicus [8] = test: The compound was tested for % reduction of nephrotoxicity in rat after intravenous administration at dose 10 mg/kg; format: functional
Rattus norvegicus [9] = test: The compound was tested for % reduction of nephrotoxicity in rat after intravenous administration at dose 20 mg/kg; NE denotes no effect; format: functional, organism-based; design: dose 20 mg/kg
Rattus norvegicus [10] = test: Tested for nephrotoxicity in Dawley rats and measured for plasma drug level after intravenous administration at dose 2.5 mg/kg; format: functional
Rattus norvegicus [11] = test: Tested for nephrotoxicity in Dawley rats and measured for plasma drug level after intravenous administration at dose 10 mg/kg; format: functional
Rattus norvegicus [12] = test: Tested for nephrotoxicity in Dawley rats and measured for blood urea nitrogen levels after intravenous administration at dose 2.5 mg/kg; format: functional
Rattus norvegicus [13] = test: Tested for nephrotoxicity in Dawley rats and measured for plasma drug level after intravenous administration at dose 5 mg/kg; format: functional
Rattus norvegicus [14] = test: Tested for nephrotoxicity in Dawley rats and measured for blood urea nitrogen levels after intravenous administration at dose 5 mg/kg; format: functional
Rattus norvegicus [15] = test: Tested for nephrotoxicity in Dawley rats and measured for blood urea nitrogen levels after intravenous administration at dose 10 mg/kg; format: functional
Rattus norvegicus [16] = test: The compound was tested for % reduction of nephrotoxicity in rat after intravenous administration at dose 1.7 mg/kg; format: functional
Rattus norvegicus [17] = test: Tested for nephrotoxicity in Dawley rats and measured for blood urea nitrogen levels after intravenous administration at dose 20 mg/kg; format: functional
Rattus norvegicus [18] = test: Tested for nephrotoxicity in Dawley rats and measured for blood urea nitrogen levels after intravenous administration at dose 40 mg/kg; format: functional
Rattus norvegicus [19] = test: The compound was tested for % reduction of nephrotoxicity in rat after intravenous administration at dose 20 mg/kg; format: functional
Rattus norvegicus [20] = test: Tested for nephrotoxicity in Dawley rats and measured for plasma drug level after intravenous administration at dose 40 mg/kg; format: functional
Rattus norvegicus [21] = test: Tested for nephrotoxicity in Dawley rats and measured for plasma drug level after intravenous administration at dose 20 mg/kg; format: functional

Sequence of Peptidyl-prolyl cis-trans isomerase FKBP1A (P62942 whole entry): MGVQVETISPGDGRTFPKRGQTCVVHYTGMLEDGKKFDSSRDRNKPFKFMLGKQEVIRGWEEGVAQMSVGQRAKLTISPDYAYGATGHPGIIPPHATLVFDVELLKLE

Row | SMILES | EC50 [7] [nM] | IC50 (Mus musculus [1]) [nM] | ED50 (Rattus norvegicus [2]) [mg/kg] | ED50 (Mus musculus [3]) [mg/kg] | ED50 (Mus musculus [5]) [mg/kg] | Therapeutic index [6] | other results
1 | CC[C@@H]1/C=C(\C)C[C@H](C)C[C@H](OC)[C@H]2O[C@@](O)(C(=O)C(=O)N3CCCC[C@H]3C(=O)O[C@H](/C(C)=C/C3CC[C@@H](OC[C@H](O)c4ccc(F)c(F)c4)[C@H](OC)C3)[C@H](C)[C@H](O)CC1=O)[C@H](C)C[C@@H]2OC (stereo partly specified) | 13.6 | 0.11 | 13.7 | 0.19 | 3.9 | 72 | Reduction (Rattus norvegicus [4]): 54%
2 | C=CC[C@@H]1/C=C(\C)C[C@H](C)C[C@H](OC)[C@H]2O[C@@](O)(C(=O)C(=O)N3CCCC[C@H]3C(=O)O[C@H](/C(C)=C/[C@@H]3CC[C@@H](O)[C@H](OC)C3)[C@H](C)C(O)CC1=O)[C@H](C)C[C@@H]2OC (single isomer, unassigned) [TACROLIMUS ANHYDROUS] |  | 0.2 | 3.7 | 0.22 | 2.6 |  | Nephrotoxicity (Rattus norvegicus [10]): 13 ng/mL; Nephrotoxicity (Rattus norvegicus [11]): 611 ng/mL; Nephrotoxicity (Rattus norvegicus [12]): 18.1 mg/dL; Nephrotoxicity (Rattus norvegicus [13]): 45 ng/mL; Nephrotoxicity (Rattus norvegicus [14]): 21 mg/dL; Nephrotoxicity (Rattus norvegicus [15]): 26 mg/dL; Reduction (Rattus norvegicus [16]): 45%
3 | CC[C@@H]1/C=C(\C)C[C@H](C)C[C@H](OC)[C@H]2O[C@@](O)(C(=O)C(=O)N3CCCC[C@H]3C(=O)O[C@H](/C(C)=C/C3CC[C@@H](OC[C@@H](O)c4ccc(F)c(F)c4)[C@H](OC)C3)[C@H](C)[C@H](O)CC1=O)[C@H](C)C[C@@H]2OC (stereo partly specified) | 7.5 | 0.14 | 10 | 0.19 | 2.8 | 52 | Reduction (Rattus norvegicus [8]): 44%
4 | CC[C@@H]1/C=C(\C)C[C@H](C)C[C@H](OC)[C@H]2O[C@@](O)(C(=O)C(=O)N3CCCC[C@H]3C(=O)O[C@H](/C(C)=C/C3CC[C@@H](OC[C@H](O)c4cccc(C(F)(F)F)c4)[C@H](OC)C3)[C@H](C)[C@H](O)CC1=O)[C@H](C)C[C@@H]2OC (stereo partly specified) | 45 | 0.38 | 13.7 | 0.29 | 5 | 47 | Reduction (Rattus norvegicus [4]): 51%
5 | CC[C@@H]1/C=C(\C)C[C@H](C)C[C@H](OC)[C@H]2O[C@@](O)(C(=O)C(=O)N3CCCC[C@H]3C(=O)O[C@H](/C(C)=C/C3CC[C@@H](OC[C@@H](O)c4ccc5ccccc5c4)[C@H](OC)C3)[C@H](C)[C@H](O)CC1=O)[C@H](C)C[C@@H]2OC (stereo partly specified) | 21.1 | 0.33 | 21.6 | 0.38 | 3.7 | 57 | Nephrotoxicity (Rattus norvegicus [11]): 478 ng/mL; Nephrotoxicity (Rattus norvegicus [13]): 239 ng/mL; Nephrotoxicity (Rattus norvegicus [17]): 24.7 mg/dL; Nephrotoxicity (Rattus norvegicus [18]): 39.3 mg/dL; Nephrotoxicity (Rattus norvegicus [14]): 16.3 mg/dL; Nephrotoxicity (Rattus norvegicus [15]): 17.7 mg/dL; Reduction (Rattus norvegicus [19]): 41%; Nephrotoxicity (Rattus norvegicus [20]): 3120 ng/mL; Nephrotoxicity (Rattus norvegicus [21]): 1897 ng/mL
6 | CC[C@@H]1/C=C(\C)C[C@H](C)C[C@H](OC)[C@H]2O[C@@](O)(C(=O)C(=O)N3CCCC[C@H]3C(=O)O[C@H](/C(C)=C/C3CC[C@@H](OC[C@H](O)c4ccc5ccccc5c4)[C@H](OC)C3)[C@H](C)[C@H](O)CC1=O)[C@H](C)C[C@@H]2OC (stereo partly specified) | 18 | 0.34 | 14.2 | 0.38 | 3.4 | 37 | Reduction (Rattus norvegicus [19]): 40%

The next lines start with results.

Row | EC50 [7] [nM] | SMILES | IC50 (Mus musculus [1]) [nM] | ED50 (Rattus norvegicus [2]) [mg/kg] | ED50 (Mus musculus [3]) [mg/kg] | ED50 (Mus musculus [5]) [mg/kg] | Therapeutic index [6] | other results
7 | 9 | CC[C@@H]1/C=C(\C)C[C@H](C)C[C@H](OC)[C@H]2O[C@@](O)(C(=O)C(=O)N3CCCC[C@H]3C(=O)O[C@H](/C(C)=C/C3CC[C@@H](OC[C@H](O)c4cc(C)cc(C)c4)[C@H](OC)C3)[C@H](C)[C@H](O)CC1=O)[C@H](C)C[C@@H]2OC (stereo partly specified) | 0.34 | 7.25 | 0.49 | 4.8 | 15 | Reduction (Rattus norvegicus [8]): 48%
8 | 7.5 | CC[C@@H]1/C=C(\C)C[C@H](C)C[C@H](OC)[C@H]2O[C@@](O)(C(=O)C(=O)N3CCCC[C@H]3C(=O)O[C@H](/C(C)=C/C3CC[C@@H](OC[C@@H](O)c4cc(C)cc(C)c4)[C@H](OC)C3)[C@H](C)[C@H](O)CC1=O)[C@H](C)C[C@@H]2OC (stereo partly specified) | 0.23 | 10.3 | 0.45 | 4.5 | 23 | Reduction (Rattus norvegicus [9]): inactive
9 | 12 | CC[C@@H]1/C=C(\C)C[C@H](C)C[C@H](OC)[C@H]2O[C@@](O)(C(=O)C(=O)N3CCCC[C@H]3C(=O)O[C@H](/C(C)=C/C3CC[C@@H](OC[C@H](O)c4cc5ccccc5s4)[C@H](OC)C3)[C@H](C)[C@H](O)CC1=O)[C@H](C)C[C@@H]2OC (stereo partly specified) | 0.47 |  | 0.53 | 5.6 |  | 
10 | 11.2 | CC[C@@H]1/C=C(\C)C[C@H](C)C[C@H](OC)[C@H]2O[C@@](O)(C(=O)C(=O)N3CCCC[C@H]3C(=O)O[C@H](/C(C)=C/C3CC[C@@H](OC[C@@H](O)c4cc5ccccc5s4)[C@H](OC)C3)[C@H](C)[C@H](O)CC1=O)[C@H](C)C[C@@H]2OC (stereo partly specified) | 0.39 | 14.8 | 0.75 | 6.4 | 20 | Reduction (Rattus norvegicus [4]): 32%
11 | 45 | CC[C@@H]1/C=C(\C)C[C@H](C)C[C@H](OC)[C@H]2O[C@@](O)(C(=O)C(=O)N3CCCC[C@H]3C(=O)O[C@H](/C(C)=C/C3CC[C@@H](OC[C@@H](O)c4cccc(C(F)(F)F)c4)[C@H](OC)C3)[C@H](C)[C@H](O)CC1=O)[C@H](C)C[C@@H]2OC (stereo partly specified) | 0.38 | 12.8 | 0.31 | 3.7 | 41 | Reduction (Rattus norvegicus [9]): inactive
